Assay results as given in ChEMBL document CHEMBL2010711, “Synthesis and comparative evaluation of 4-oxa- and 4-aza-podophyllotoxins as antiproliferative microtubule destabilizing agents” (Bioorg Med Chem Lett, 2012).
Calls of active or inactive are those of the source.

Key:
SNB-75 = assay: Cytotoxicity against human SNB75 cells after 48 hrs by trypan blue dye exclusion assay; format: functional; conditions: SNB-75, 48 h
COLO 205 = assay: Cytotoxicity against human COLO205 cells after 48 hrs by trypan blue dye exclusion assay; format: functional; conditions: COLO 205, 48 h
HCC 2998 = assay: Cytotoxicity against human HCC2998 cells after 48 hrs by trypan blue dye exclusion assay; format: functional; conditions: HCC 2998, 48 h
SR = assay: Cytotoxicity against human SR cells after 48 hrs by trypan blue dye exclusion assay; format: functional
SW-620 = assay: Cytotoxicity against human SW620 cells after 48 hrs by trypan blue dye exclusion assay; format: functional; conditions: SW-620, 48 h
T47D = assay: Cytotoxicity against human T47D cells after 48 hrs by trypan blue dye exclusion assay; format: functional
LOX IMVI = assay: Cytotoxicity against human LOXIMVI cells after 48 hrs by trypan blue dye exclusion assay; format: functional
BT-549 = assay: Cytotoxicity against human BT549 cells after 48 hrs by trypan blue dye exclusion assay; format: functional; conditions: BT-549, 48 h
MOLT-4 = assay: Cytotoxicity against human MOLT4 cells after 48 hrs by trypan blue dye exclusion assay; format: functional; conditions: MOLT-4, 48 h
UACC-62 = assay: Cytotoxicity against human UACC62 cells after 48 hrs by trypan blue dye exclusion assay; format: functional; conditions: UACC-62, 48 h
SK-MEL-28 = assay: Cytotoxicity against human SK-MEL-28 cells after 48 hrs by trypan blue dye exclusion assay; format: functional; conditions: SK-MEL-28, 48 h
HOP-62 = assay: Cytotoxicity against human HOP62 cells after 48 hrs by trypan blue dye exclusion assay; format: functional; conditions: HOP-62, 48 h
A549 = assay: Cytotoxicity against human A549 cells after 48 hrs by trypan blue dye exclusion assay; format: functional; conditions: A549, 48 h
PC-3 = assay: Cytotoxicity against human PC3 cells after 48 hrs by trypan blue dye exclusion assay; format: functional; conditions: PC-3, 48 h
NCI-H460 = assay: Cytotoxicity against human NCI-H460 cells after 48 hrs by trypan blue dye exclusion assay; format: functional; conditions: NCI-H460, 48 h
RXF 393 = assay: Cytotoxicity against human RXF393 cells after 48 hrs by trypan blue dye exclusion assay; format: functional; conditions: RXF 393, 48 h
K562 = assay: Cytotoxicity against human K562 cells after 48 hrs by trypan blue dye exclusion assay; format: functional; conditions: K562, 48 h
NCI/ADR-RES = assay: Cytotoxicity against human NCI/ADR-RES cells after 48 hrs by trypan blue dye exclusion assay; format: functional
SN12C = assay: Cytotoxicity against human SN12C cells after 48 hrs by trypan blue dye exclusion assay; format: functional
SNB-19 = assay: Cytotoxicity against human SNB19 cells after 48 hrs by trypan blue dye exclusion assay; format: functional; conditions: SNB-19, 48 h
KM12 = assay: Cytotoxicity against human KM12 cells after 48 hrs by trypan blue dye exclusion assay; format: functional; conditions: KM12, 48 h
Paracentrotus lividus [1] = assay: Antimitotic activity against Paracentrotus lividus embryo assessed as cleavage arrest at 2 fold less effective threshold concentration after 2.5 to 6 hrs; format: functional, organism-based
DU-145 = assay: Cytotoxicity against human DU145 cells after 48 hrs by trypan blue dye exclusion assay; format: functional; conditions: DU-145, 48 h
MDA-MB-231 = assay: Cytotoxicity against human MDA-MB-231 cells after 48 hrs by trypan blue dye exclusion assay; format: functional; conditions: MDA-MB-231, 48 h
SF-539 = assay: Cytotoxicity against human SF539 cells after 48 hrs by trypan blue dye exclusion assay; format: functional; conditions: SF-539, 48 h
HCT-116 = assay: Cytotoxicity against human HCT116 cells after 48 hrs by trypan blue dye exclusion assay; format: functional; conditions: HCT-116, 48 h
OVCAR-4 = assay: Cytotoxicity against human OVCAR4 cells after 48 hrs by trypan blue dye exclusion assay; format: functional; conditions: OVCAR-4, 48 h
MDA-MB-468 = assay: Cytotoxicity against human MDA-MB-468 cells after 48 hrs by trypan blue dye exclusion assay; format: functional; conditions: MDA-MB-468, 48 h
ACHN = assay: Cytotoxicity against human ACHN cells after 48 hrs by trypan blue dye exclusion assay; format: functional
OVCAR-3 = assay: Cytotoxicity against human OVCAR3 cells after 48 hrs by trypan blue dye exclusion assay; format: functional; conditions: OVCAR-3, 48 h
M14 = assay: Cytotoxicity against human M14 cells after 48 hrs by trypan blue dye exclusion assay; format: functional; conditions: M14, 48 h
NCI-H322M = assay: Cytotoxicity against human NCI-H322M cells after 48 hrs by trypan blue dye exclusion assay; format: functional
[2] = Cytotoxicity against human Hs 578T cells after 48 hrs by trypan blue dye exclusion assay; format: functional
NCI-H226 = assay: Cytotoxicity against human NCI-H226 cells after 48 hrs by trypan blue dye exclusion assay; format: functional; conditions: NCI-H226, 48 h
Malme-3M = assay: Cytotoxicity against human MALME-3M cells after 48 hrs by trypan blue dye exclusion assay; format: functional
SK-MEL-2 = assay: Cytotoxicity against human SK-MEL-2 cells after 48 hrs by trypan blue dye exclusion assay; format: functional; conditions: SK-MEL-2, 48 h
Paracentrotus lividus [3] = assay: Antimitotic activity against Paracentrotus lividus embryo assessed as cleavage alteration at 2 fold less effective threshold concentration after 2.5 to 6 hrs; format: functional, organism-based
SF-268 = assay: Cytotoxicity against human SF268 cells after 48 hrs by trypan blue dye exclusion assay; format: functional; conditions: SF-268, 48 h
MCF7 = assay: Cytotoxicity against human MCF7 cells after 48 hrs by trypan blue dye exclusion assay; format: functional; conditions: MCF7, 48 h
NCI-H23 = assay: Cytotoxicity against human NCI-H23 cells after 48 hrs by trypan blue dye exclusion assay; format: functional; conditions: NCI-H23, 48 h
HT-29 = assay: Cytotoxicity against human HT-29 cells after 48 hrs by trypan blue dye exclusion assay; format: functional; conditions: HT-29, 48 h
SK-MEL-5 = assay: Cytotoxicity against human SK-MEL-5 cells after 48 hrs by trypan blue dye exclusion assay; format: functional; conditions: SK-MEL-5, 48 h
EKVX = assay: Cytotoxicity against human EKVX cells after 48 hrs by trypan blue dye exclusion assay; format: functional
MDA-MB-435 = assay: Cytotoxicity against human MDA-MB-435 cells after 48 hrs by trypan blue dye exclusion assay; format: functional; conditions: MDA-MB-435, 48 h
RPMI-8226 = assay: Cytotoxicity against human RPMI8226 cells after 48 hrs by trypan blue dye exclusion assay; format: functional; conditions: RPMI-8226, 48 h
A498 = assay: Cytotoxicity against human A498 cells after 48 hrs by trypan blue dye exclusion assay; format: functional; conditions: A498, 48 h
SK-OV-3 = assay: Cytotoxicity against human SKOV3 cells after 48 hrs by trypan blue dye exclusion assay; format: functional; conditions: SK-OV-3, 48 h
OVCAR-8 = assay: Cytotoxicity against human OVCAR8 cells after 48 hrs by trypan blue dye exclusion assay; format: functional; conditions: OVCAR-8, 48 h
IGROV-1 = assay: Cytotoxicity against human IGROV1 cells after 48 hrs by trypan blue dye exclusion assay; format: functional; conditions: IGROV-1, 48 h
CCRF-CEM = assay: Cytotoxicity against human CCRF-CEM cells after 48 hrs by trypan blue dye exclusion assay; format: functional
TK-10 = assay: Cytotoxicity against human TK10 cells after 48 hrs by trypan blue dye exclusion assay; format: functional; conditions: TK-10, 48 h
U-251 = assay: Cytotoxicity against human U251 cells after 48 hrs by trypan blue dye exclusion assay; format: functional; conditions: U-251, 48 h
HCT-15 = assay: Cytotoxicity against human HCT15 cells after 48 hrs by trypan blue dye exclusion assay; format: functional; conditions: HCT-15, 48 h
UACC-257 = assay: Cytotoxicity against human UACC257 cells after 48 hrs by trypan blue dye exclusion assay; format: functional; conditions: UACC-257, 48 h
HOP-92 = assay: Cytotoxicity against human HOP92 cells after 48 hrs by trypan blue dye exclusion assay; format: functional; conditions: HOP-92, 48 h
NCI-H522 = assay: Cytotoxicity against human NCI-H522 cells after 48 hrs by trypan blue dye exclusion assay; format: functional; conditions: NCI-H522, 48 h
OVCAR-5 = assay: Cytotoxicity against human OVCAR5 cells after 48 hrs by trypan blue dye exclusion assay; format: functional; conditions: OVCAR-5, 48 h
HL-60(TB) = assay: Cytotoxicity against human HL-60(TB) cells after 48 hrs by trypan blue dye exclusion assay; format: functional; conditions: HL-60, 48 h
Paracentrotus lividus [4] = assay: Microtubule destabilizing activity in Paracentrotus lividus embryo assessed as embryo spinning at 2 fold less effective threshold concentration after 15 mins to 20 hrs; format: functional, organism-based
UO-31 = assay: Cytotoxicity against human UO31 cells after 48 hrs by trypan blue dye exclusion assay; format: functional; conditions: UO-31, 48 h
CAKI-1 = assay: Cytotoxicity against human CAKI-1 cells after 48 hrs by trypan blue dye exclusion assay; format: functional; conditions: CAKI-1, 48 h
SF-295 = assay: Cytotoxicity against human SF295 cells after 48 hrs by trypan blue dye exclusion assay; format: functional; conditions: SF-295, 48 h
786-0 = assay: Cytotoxicity against human 786-0 cells after 48 hrs by trypan blue dye exclusion assay; format: functional; conditions: 786-0, 48 h

Compound `COc1ccc2c(c1)NC1=C(C(=O)OC1)C2c1cc(OC)c2c(c1)OCO2` (stereo not given) has a GI50 (SNB-75) of 42.6 nM, a GI50 (COLO 205) of under 10 nM and a TGI (COLO 205) of 26.8 nM. The GI50 (HCC 2998) was 23.3 nM, the GI50 (SR) was under 10 nM and the GI50 (SW-620) was under 10 nM. It also gave a GI50 (T47D) of over 100000 nM, a GI50 (LOX IMVI) of under 10 nM and a GI50 (BT-549) of 46 nM. It also gave a GI50 (MOLT-4) of 12.9 nM, a GI50 (UACC-62) of under 10 nM and a GI50 (SK-MEL-28) of 56.4 nM. The GI50 (HOP-62) was 12.1 nM, the GI50 (A549) was 14.6 nM and the GI50 (PC-3) was 19.9 nM. It also gave a GI50 (NCI-H460) of 22.5 nM, a GI50 (RXF 393) of under 10 nM and a GI50 (K562) of under 10 nM. It also gave a GI50 (NCI/ADR-RES) of under 10 nM, a GI50 (SN12C) of 19.9 nM and a GI50 (SNB-19) of 49.9 nM. For the same compound, the GI50 (KM12) was under 10 nM, the Activity (Paracentrotus lividus [1]) was “inactive” and the GI50 (DU-145) was 19 nM. For the same compound, the GI50 (MDA-MB-231) was 26.8 nM, the GI50 (SF-539) was under 10 nM and the GI50 (HCT-116) was under 10 nM. For the same compound, the GI50 (OVCAR-4) was 19.5 nM, the GI50 (MDA-MB-468) was under 10 nM and the GI50 (ACHN) was 56.7 nM. For the same compound, the GI50 (OVCAR-3) was under 10 nM, the TGI (OVCAR-3) was 12.2 nM and the GI50 (M14) was 13.2 nM. It also gave a GI50 (NCI-H322M) of 58.3 nM, a GI50 [2] of under 10 nM and a GI50 (NCI-H226) of 10.1 nM. For the same compound, the GI50 (Malme-3M) was over 100000 nM, the GI50 (SK-MEL-2) was 26.3 nM and the Activity (Paracentrotus lividus [3]) was “inactive”. It also gave a GI50 (SF-268) of under 10 nM, a GI50 (MCF7) of under 10 nM and a GI50 (NCI-H23) of 20.2 nM. The GI50 (HT-29) was under 10 nM, the GI50 (SK-MEL-5) was 10.8 nM and the GI50 (EKVX) was under 10 nM. The GI50 (MDA-MB-435) was under 10 nM, the GI50 (RPMI-8226) was under 10 nM and the GI50 (A498) was under 10 nM. The GI50 (SK-OV-3) was 14.6 nM, the GI50 (OVCAR-8) was under 10 nM and the GI50 (IGROV-1) was 25 nM. It also gave a GI50 (CCRF-CEM) of under 10 nM, a GI50 (TK-10) of 60.7 nM and a GI50 (U-251) of 16.8 nM. It also gave a GI50 (HCT-15) of 28.3 nM, a GI50 (UACC-257) of 51.2 nM and a GI50 (HOP-92) of 86.2 nM. It also gave a GI50 (NCI-H522) of under 10 nM, a GI50 (OVCAR-5) of 81.7 nM and a GI50 (HL-60(TB)) of 20.9 nM. The Activity (Paracentrotus lividus [4]) was “inactive”, the GI50 (UO-31) was 30 nM and the GI50 (CAKI-1) was 50.2 nM. The GI50 (SF-295) was under 10 nM and the GI50 (786-0) was 24.9 nM.
